According to patent US20260007601A1, “IONIZABLE CATIONIC LIPID COMPOUND AND COMPOSITION FOR DELIVERING NUCLEIC ACID AND USE THEREOF” (BEIJING YOUCAREKECHUANG PHARMACEUTICAL TECHNOLOGY CO., LTD., priority 2023, published 2026):
Several values for one entry are separate records, joined by “and”; a condition that tells them apart may be missing. Equal entries are not always repeated.

Assays:
[1] = system: 293T cells; assay: Fluorescence detection of Fluc-mRNA (cell transfection efficiency of LNP formulations); type: cell-based
Outline: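 293T cells at 10,000 per well, adhered overnight, then given LNPs carrying 0.3 μg Fluc-mRNA (cationic:neutral:structured:polymer-conjugated lipid 49:10:39.5:1.5 molar). After 24 h, luciferase signal read with luciferase kit reagents on an IVIS imaging system as transfection efficiency.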

[2] = system: 293T cells; assay: Cell survival rate assay (CCK-8); type: cell-based
Outline: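 293T cells seeded at 10,000 per well and grown overnight, then exposed for 24 h to LNPs (cationic/neutral/structured/PEG lipids 49:10:39.5:1.5) carrying 1.5 μg Fluc-mRNA, or Lipofectamine 3000. Viability read by CCK-8, 1 h incubation, absorbance at 450 nm.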

[3] = Particle size and polydispersity index (PDI) of nanolipid particles, dynamic light scattering; type: physicochemical; settings: LNP formulation prepared from the named cationic lipid, 25° C
Method: The particle size and polydispersity index (PDI) were determined by dynamic light scattering method using a Malvern laser particle size analyzer. 10 μL of liposome solution was diluted to 1 mL with RNase-free deionized water and added to a sample pool. Each sample was measured three times. The measurement conditions were: 90° scattering angle, 25° C.

[4] = system: female BALB/C mice; assay: Mouse in vivo imaging of Fluc-mRNA LNP formulations; design: average radiation intensity (mRNA expression): unit not given here; settings: for average radiation intensity (mRNA expression): 10 μg Fluc-mRNA LNP intramuscularly
Outline: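 Female BALB/C mice (4–6 weeks, 17–19 g) received LNP carrying 10 μg Fluc-mRNA intramuscularly. Imaging substrate given intraperitoneally at 6 h, 24 h, 48 h and 7 d; after 5 min free movement, average radiance read by IVIS Spectrum imaging.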

## CCCCCCCCCCCOC(=O)CCCCCN(CCCCCCCC(=O)OC(CCCCCCCC)CCCCCCCC)CCN(C)CCO [YK-201, heptadecan-9-yl-8-(2-((2-hydroxyethyl)(methylamino))ethyl)(6-oxo-6-((undecanyloxy)hexyl)amino)octanoate]
[1]; Fluc-mRNA LNP
  RLU / cell transfection efficiency, times that of ALC-0315: 13.27 times
  RLU / cell transfection efficiency, times that of HHMA: 13.56 times
  RLU / cell transfection efficiency, times that of Lipofectamine 3000: 23.71 times
  RLU / cell transfection efficiency, times that of YK-009: 5.56 times
  RLU / cell transfection efficiency, times that of compound 21: 20.04 times
  RLU / cell transfection efficiency, times that of compound 23: 21.38 times
  cell transfection efficiency, times that of YK-223: 379.71 times
  cell transfection efficiency, times that of YK-224: 323.59 times
  cell transfection efficiency, times that of YK-226: 493.98 times
  fluorescence absorption value / cell transfection efficiency, times that of YK-203: 7.36 times
  fluorescence absorption value / cell transfection efficiency, times that of YK-204: 78 times and 78.25 times
  fluorescence absorption value / cell transfection efficiency, times that of YK-205: 27.68 times
  fluorescence absorption value / cell transfection efficiency, times that of YK-208: 7.38 times
  fluorescence absorption value / cell transfection efficiency, times that of YK-210: 6.15 times
  fluorescence absorption value / cell transfection efficiency, times that of YK-211: 20.79 times
  fluorescence absorption value / cell transfection efficiency, times that of YK-212: 7.28 times
  fluorescence absorption value / cell transfection efficiency, times that of YK-213: 20.87 times
  fluorescence absorption value / cell transfection efficiency, times that of YK-214: 6.22 times
  fluorescence absorption value / cell transfection efficiency, times that of YK-215: 29.03 times
  fluorescence absorption value / cell transfection efficiency, times that of YK-216: 12.49 times
  fluorescence absorption value / cell transfection efficiency, times that of YK-217: 396.42 times
  fluorescence absorption value / cell transfection efficiency, times that of YK-218: 46.92 times
  fluorescence absorption value / cell transfection efficiency, times that of YK-219: 18.91 times
  fluorescence absorption value / cell transfection efficiency, times that of YK-220: 131.62 times
  fluorescence absorption value, times that of YK-222: 46.97 times
[1]; LNP containing 0.3 μg Fluc-mRNA, 24 hours
  Relative light unit (RLU): 28482617 RLU
[1]; RLU of YK-201 / RLU of the named lipid
  Multiples of values that equivalent to YK-201: 1.00
[1]; RLU of YK-202 / RLU of the named lipid
  Multiples of values that equivalent to YK-202: 1.05
[1]; RLU of the named lipid / RLU of SM-102, times that of SM-102
  Ratio relative to SM-102: 17.10
[2]; LNP containing 1.5 μg Fluc-mRNA, 24 hours, CCK-8
  Cell survival rate: 75.93%
[2]; difference of rates
  cell survival rate higher (cytotoxicity reduced) compared with YK-221: 55% and 54.98%
  cell survival rate higher (toxicity lower) than that of YK-204: 30% and 33.36%
  cell survival rate higher (toxicity lower) than that of YK-225: 32.52%
  cell survival rate higher than that of ALC-0315: 25.97%
  cell survival rate higher than that of HHMA: 10.37%
  cell survival rate higher than that of Lipofectamine 3000: 52.88%
  cell survival rate higher than that of SM-102: 7.38%
  cell survival rate higher than that of YK-203: 40.37%
  cell survival rate higher than that of YK-205: 17.01%
  cell survival rate higher than that of YK-208: 29.25%
  cell survival rate higher than that of YK-210: 37.55%
  cell survival rate higher than that of YK-211: 23.63%
  cell survival rate higher than that of YK-212: 40.67%
  cell survival rate higher than that of YK-213: 34.49%
  cell survival rate higher than that of YK-214: 50.35% and 50%
  cell survival rate higher than that of YK-215: 31.34%
  cell survival rate higher than that of YK-216: 30.13%
  cell survival rate higher than that of YK-217: 33.66%
  cell survival rate higher than that of YK-219: 17.32%
  cell survival rate higher than that of YK-220: 16.94%
  cell survival rate higher than that of YK-222: 42.18%
  cell survival rate higher than that of YK-223: 39.29%
  cell survival rate higher than that of YK-224: 52.46%
  cell survival rate higher than that of YK-226: 48.03%
  cell survival rate higher than that of compound 21: 6.91%
  cell survival rate higher than that of compound 23: 5.83%
[3]
  PDI: 25.5%
  Particle size: 205 nm
[4]; 6 h
  average radiation intensity, times that of ALC-0315: 3.39 times
  average radiation intensity, times that of HHMA: 4.47 times
  average radiation intensity, times that of SM-102: 4.21 times
  average radiation intensity, times that of compound 21: 4.76 times
  average radiation intensity, times that of compound 23: 4.81 times
  mRNA expression level, times that of YK-204: 81.10 times
  mRNA expression level, times that of YK-223: 276.05 times
  average radiation intensity (mRNA expression): 2858500
[4]; 6 hours
  expression level, times that of YK-215: 56.53 times
  expression level, times that of YK-217: 116.27 times
[4]; 24 h
  average radiation intensity, times that of ALC-0315: 11.11 times
  average radiation intensity, times that of HHMA: 18.47 times
  average radiation intensity, times that of SM-102: 17.49 times
  average radiation intensity, times that of compound 21: 18.76 times
  average radiation intensity, times that of compound 23: 18.27 times
  mRNA expression level, times that of YK-204: 387.32 times
  mRNA expression level, times that of YK-223: 1134.20 times
  average radiation intensity (mRNA expression): 2025680
[4]; 24 hours
  expression level, times that of YK-215: 297.24 times
  expression level, times that of YK-217: 764.41 times
[4]; 48 h
  average radiation intensity, times that of ALC-0315: 19.16 times
  average radiation intensity, times that of HHMA: 24.82 times
  average radiation intensity, times that of SM-102: 23.91 times
  average radiation intensity, times that of compound 21: 24.34 times
  average radiation intensity, times that of compound 23: 22.78 times
  mRNA expression level, times that of YK-204: 299.49 times
  mRNA expression level, times that of YK-223: 1077.82 times
  average radiation intensity (mRNA expression): 730760
[4]; 48 hours
  expression level, times that of YK-215: 200.76 times
  expression level, times that of YK-217: 713.63 times
[4]; 7 d
  average radiation intensity, times that of ALC-0315: 4.58 times
  average radiation intensity, times that of HHMA: 5.68 times
  average radiation intensity, times that of SM-102: 5.11 times
  average radiation intensity, times that of compound 21: 4.94 times
  average radiation intensity, times that of compound 23: 5.17 times
  expression level, times that of YK-215: 29.56 times
  expression level, times that of YK-217: 57.65 times
  mRNA expression level, times that of YK-204: 39.99 times
  mRNA expression level, times that of YK-223: 68.53 times
  average radiation intensity (mRNA expression): 30151
[4]; time point not stated
  mRNA expression in mice can reach, times that of YK-204: 380 times
